According to patent US8957129B2, “Aqueous coatings and paints incorporating one or more antimicrobial biosurfactants and methods for using same” (priority 2012, dated 2015):
Converted amounts (≈) assume the structure as drawn. Like-named read-outs stand apart in the source and are kept apart here.

What was measured:
E. coli = assay: MIC determination in broth media, two fold dilution, microtiter plates; type: cell-based; conditions: Escherichia coli, read-out: Minimum Inhibitory Concentration (MIC), alone (QA/QB), E. coli, substance alone
Aspergillus niger = assay: as above; type: cell-based
Candida albicans = assay: as above; type: cell-based; conditions: read-out: Minimum Inhibitory Concentration (MIC), alone (QA/QB)
B. cepacia = assay: as above; type: cell-based, Burkhlderia cepacia; conditions: for MIC: Burkholderia cepacia, read-out: Minimum Inhibitory Concentration (MIC), alone (QA/QB)
fungi = assay: Challenge test of combinations of Rhamnolipids with Isothiazolinones in flat paint; type: cell-based; conditions: levels: RL 250 ppm, CMIT/MIT 5 ppm, MIT 25 ppm, BIT 50 ppm
Description: (§1) A second batch of flat paint formulation was prepared without any surfactants. Then Rhamnolipids (RL) were post-added to this formulation. The formulation was then subjected to an initial screen challenge test using 250 to 2000 ppm RL with mixed populations of E. coli and Pseudomonas aeruginosa.
(§2) Using the same paints, a biocide at lower use level was combined with Rhamnolipid (RL) at a minimum use of 250 ppm.

bacteria = assay: as above; type: cell-based; conditions: levels: RL 250 ppm, CMIT/MIT 5 ppm, MIT 25 ppm, BIT 50 ppm
Description: as §1, §2

Bacillus cereus = assay: MIC determination in broth media, two fold dilution, microtiter plates; type: cell-based; conditions: read-out: Minimum Inhibitory Concentration (MIC), alone (QA/QB)
P. aeruginosa = assay: as above; type: cell-based, Pseudomonas aeruginosa; conditions: for MIC: Pseudomonas aeruginosa
S. aureus = assay: as above; type: cell-based; conditions: Staphylococcus aureus, read-out: Minimum Inhibitory Concentration (MIC), alone (QA/QB)
[1] = B. cepacia, substance alone, broth

## Cn1sccc1=O [MIT, Methyl Isothiazolinone]
E. coli
  MIC: ~25 µg/mL (≈ 217 µM)
Aspergillus niger; read-out: Minimum Inhibitory Concentration (MIC), alone (QA/QB), Aspergillus niger, substance alone
  MIC: > 100 µg/mL
Aspergillus niger; substance alone
  Minimum Inhibitory Concentration (MIC), alone (QA/QB): 100 ppm
Candida albicans
  MIC: 100 µg/mL (≈ 868 µM)
B. cepacia
  MIC: 25 µg/mL (≈ 217 µM)
fungi
  Day 1 Fungi growth: +
  Day 2 Fungi growth: +
  Day 5 Fungi growth: −
bacteria
  Day 1 Bacteria growth: −
  Day 2 Bacteria growth: −
  Day 5 Bacteria growth: −
Bacillus cereus
  MIC: 25 µg/mL (≈ 217 µM)
P. aeruginosa; P. aeruginosa, substance alone
  Minimum Inhibitory Concentration (MIC), alone (QA/QB): 25 ppm
P. aeruginosa; read-out: Minimum Inhibitory Concentration (MIC), alone (QA/QB), P. aeruginosa, substance alone
  MIC: 12.5 µg/mL (≈ 109 µM)
S. aureus
  MIC: 25 µg/mL (≈ 217 µM)

## O=c1[nH]sc2ccccc12 [BIT, Benz Isothiazolinone]
Aspergillus niger; substance alone, read-out: Minimum Inhibitory Concentration (MIC), alone (QA/QB)
  MIC: 50 µg/mL (≈ 331 µM)
Candida albicans; substance alone, broth
  MIC: 25 µg/mL (≈ 165 µM)
B. cepacia; [1]
  Minimum Inhibitory Concentration (MIC), alone (QA/QB): 25 ppm
  MIC: 50 µg/mL (≈ 331 µM)
fungi
  Day 1 Fungi growth: +
  Day 2 Fungi growth: +
  Day 5 Fungi growth: +
bacteria
  Day 1 Bacteria growth: −
  Day 2 Bacteria growth: −
  Day 5 Bacteria growth: −
Bacillus cereus; substance alone, broth
  MIC: 25 µg/mL (≈ 165 µM)
P. aeruginosa; P. aeruginosa, substance alone, read-out: Minimum Inhibitory Concentration (MIC), alone (QA/QB)
  MIC: 25 µg/mL (≈ 165 µM)
S. aureus; S. aureus, substance alone, broth
  MIC: 25 µg/mL (≈ 165 µM)
